Reference: US20230008508A1, “COMBINATION THERAPIES FOR THE TREATMENT OF CANCER” (H. LEE MOFFITT CANCER CENTER AND RESEARCH INSTITUTE, INC., priority 2019, published 2023)

Tests used:
[1] = test system: tumors; conditions: in-vivo; prior published studies; FIG. 20; cited from earlier work
[2] = test system: SRB12 cells; experiment: Radiation treatment with and without pramlintide; format: cell-based; conditions: pramlintide at the IC40, FIG. 21
Description: During the experiments it was observed that Pramlintide induces ROS in in-vivo in tumors (FIG. 20). To investigate whether because of its effect on ROS pramlintide would have a synergistic effect on radiation sensitivity, SRB12 cells were treated with radiation with and without the presence of pramlintide. […] Accordingly, in one aspect, disclosed herein are methods of increasing the sensitivity of a cancer (such as for example, cutaneous squamous cell carcinoma (cuSCC) or lung cancer or any cancer comprising a p53, p63, or p73 mutation or aberrant expression thereof) in a subject to radiation therapy comprising administering to the subject an agent that inhibits ΔNp63 and/or ΔNp73. In one aspect the agent that inhibits ΔNp63 and/or ΔNp73 comprises an inhibitor of glycolysis (such as, for example, an amylin analog including but not limited to pramlintide).

[3] = test system: spontaneous UV-driven cutaneous squamous cell carcinoma (cuSCC); experiment: Tumor regression in spontaneous UV-driven cuSCC model; format: in vivo; conditions: FIG. 3
Excerpt: (§1) Here, is shown that deletion of the AN isoforms of p63 or p73 leads to metabolic reprogramming and regression of p53 deficient tumors (FIG. 1). […] When investigated further it was shown that pramlintide suppresses 4Np63 expression (FIG. 4). […] These findings were validated across the sensitive cell lines Colo16 and RDEB2 and the resistant cell lines SCCIC1 and SRB12 for pramlintide (symlin) administration and regulation by ΔNp63 showing reduced levels for CYR61 and CTGF in the sensitive lines and no effect or increases in resistant lines (FIG. 6). A similar observation was also made with the F-box protein FBXO16. […] Looking at additional cell types, ΔNp63 was expressed in sensitive cells but not resistant cells (FIG. 9). To see if the regulation pattern for CYR61, CTGF, and FBXO16 was maintained in HNSCC cell lines, the expression level for each was measured in SQ20B and FaDu cells with and without the application of pramlintide (symlin) (FIG. 10). As for the Sensitive cuSCC lines, the sensitive HNSCC lines upregulate FBXO16 and downregulate CYR61 and CTGF in response to both pramlintide showing that pramlintide mediated degradation of ΔNp63 affects target gene expression. Thus, target genes cay be used as a biomarker of responsiveness to pramlintide. We next investigated the effect of pramlintide (symlin) on ΔNp63 expression levels in SQ20B (FIG. 11) and FaDu (FIG. 12) cell lines.

[4] = test system: RDEB2; experiment: Sensitivity of cuSCC cell line to pramlintide (inhibition curve); format: cell-based
[5] = test system: cutaneous squamous cell carcinoma (cuSCC) cell lines; experiment: Glycolysis of cuSCC cell lines; format: cell-based
[6] = test system: SRB12; experiment: Sensitivity of cuSCC cell line to pramlintide (inhibition curve); format: cell-based
Excerpt: (§2) Glycolysis, as measured by Extracellular Acidification Rate (Seahorse), is diminished by pramlintide administration (10 micromolar) in the sensitive SQ20B and FaDu Head and Neck SCC lines. […]
as §1

[7] = test system: Colo16; experiment: as above; format: cell-based
Excerpt: as §2, §1

[8] = test system: SCCIC1; experiment: as above; format: cell-based
Excerpt: as §2, §1

[9] = test system: p53 deficient lung cancers; experiment: Tumor regression in p53 deficient tumors; format: in vivo
Excerpt: as §1

[10] = test system: p53 deficient thymic lymphomas; experiment: Tumor regression in p53 deficient tumors; format: in vivo
Excerpt: as §1

[11] = test system: HCC95 lung SCC cells; experiment: Glycolytic rate measured by ECAR; format: cell-based; conditions: FIG. 17
Description: (§3) Glycolysis as measured by ECAR in HCC95 lung SCC and H1975 lung adenocarcinoma cells are decreased by pramlintide.
(§4) In fact, it was observed that both pramlintide and HDACi treatment reduces ΔNp63 in H1975 lung adenocarcinoma (LUAD) cells (FIG. 15). […] To investigate what effects panobinostat has on the glycolytic rate of HCC95 and H1975 cells, glycolysis was measured by ECAR showing in both […] glycolysis was decreased with treatment (FIG. 17).

[12] = test system: H1975 lung adenocarcinoma cells; experiment: Glycolytic rate measured by ECAR; format: cell-based; conditions: FIG. 17
Description: as §3, §4

[13] = test system: CTGF; experiment: Expression of ΔNp63 target gene CTGF; format: cell-based
Excerpt: (§5) Sensitive lines downregulate CYR61 and CTGF in response to both pramlintide and direct siRNA-mediated knockdown of ΔNp63 showing that pramlintide mediated degradation of ΔNp63 affects target gene expression. Resistant lines upregulate CYR61 and CTGF in response to both pramlintide and direct siRNA-mediate knockdown of ΔNp63.
as §1

[14] = test system: HCC95 cells; experiment: Cell proliferation and survival (cell cycle arrest, annexin V apoptosis); format: cell-based; conditions: FIG. 16
Description: (§6) Cell cycle arrest and apoptosis are increased by pramlintide and HDACi in HCC95 lung SCC and H1975 lung adenocarcinoma cell lines.
as §4

[15] = test system: H1975 cells; experiment: as above; format: cell-based; conditions: FIG. 16
Description: as §6, §4

[16] = test system: CYR61; experiment: Expression of ΔNp63 target gene CYR61; format: cell-based
Excerpt: as §5, §1

[17] = test system: SQ20B Head and Neck SCC line; experiment: Glycolysis measured by Extracellular Acidification Rate (Seahorse); format: cell-based; conditions: 10 micromolar; sensitive SQ20B HNSCC line; FIG. 2D
Excerpt: as §2

[18] = test system: FaDu Head and Neck SCC line; experiment: as above; format: cell-based; conditions: 10 micromolar; sensitive FaDu HNSCC line; FIG. 2D
Excerpt: as §2

[19] = test system: FBXO16; experiment: Expression of ΔNp63 target gene FBXO16; format: cell-based
Excerpt: Sensitive lines upregulate FBXO16 in response to both pramlintide and direct siRNA-mediate knockdown of ΔNp63 showing that pramlintide mediated degradation of ΔNp63 affects target gene expression. Thus target genes may be used as a biomarker of responsiveness to pramlintide. Resistant lines downregulate FBXO16 in response to both pramlintide and direct siRNA-mediate knockdown of ΔNp63 showing that pramlintide mediated degradation of ΔNp63 affects target gene expression.
as §1

[20] = test system: ΔNp63; experiment: ΔNp63 expression / protein levels (western blots); format: cell-based; conditions: for ΔNp63 protein expression: western blot
Excerpt: as §1, §4

[21] = resistant cuSCC lines (SCCIC1, SRB12), FIG. 6
[22] = sensitive HNSCC lines (SQ20B, FaDu), FIG. 10
[23] = sensitive cuSCC lines (Colo16, RDEB2), FIG. 6

CC[C@H](C)[C@H](NC(=O)[C@@H]1CCCN1C(=O)CNC(=O)[C@H](Cc1ccccc1)NC(=O)[C@H](CC(N)=O)NC(=O)[C@H](CC(N)=O)NC(=O)[C@H](CO)NC(=O)[C@H](CO)NC(=O)[C@H](Cc1c[nH]cn1)NC(=O)[C@@H](NC(=O)[C@H](CC(C)C)NC(=O)[C@H](Cc1ccccc1)NC(=O)[C@H](CC(N)=O)NC(=O)[C@H](C)NC(=O)[C@H](CC(C)C)NC(=O)[C@H](CCCNC(=N)N)NC(=O)[C@H](CCC(N)=O)NC(=O)[C@@H](NC(=O)[C@H](C)NC(=O)[C@@H]1CSSC[C@H](NC(=O)[C@@H](N)CCCCN)C(=O)N[C@@H](CC(N)=O)C(=O)N[C@@H]([C@@H](C)O)C(=O)N[C@@H](C)C(=O)N[C@@H]([C@@H](C)O)C(=O)N1)[C@@H](C)O)C(C)C)C(=O)N[C@@H](CC(C)C)C(=O)N1CCC[C@H]1C(=O)N1CCC[C@H]1C(=O)N[C@H](C(=O)N[C@@H](CC(N)=O)C(=O)N[C@H](C(=O)NCC(=O)N[C@@H](CO)C(=O)N[C@@H](CC(N)=O)C(=O)N[C@H](C(=O)N[C@@H](Cc1ccc(O)cc1)C(N)=O)[C@@H](C)O)C(C)C)[C@@H](C)O [pramlintide]
ROS in tumors [1]: induces ROS | Sensitivity to radiation treatment [2]: more sensitive to radiation treatment | Tumor regression [3]: induces tumor regression | Sensitivity to pramlintide [4]: sensitive | Glycolysis ([5]; resistant cuSCC lines, FIG. 2A, 2C): do not exhibit this decrease in glycolysis | Glycolysis ([5]; sensitive cells, FIGS. 2A-2D): suppresses glycolysis | Sensitivity to pramlintide [6]: resistant | Sensitivity to pramlintide [7]: sensitive | Sensitivity to pramlintide [8]: resistant | Tumor regression [9]: rapid tumor regression | Tumor regression [10]: rapid tumor regression | Glycolysis (ECAR) [11]: decreased | Glycolysis (ECAR) [12]: decreased | CTGF expression [13, 21]: upregulate | CTGF expression [13, 22]: downregulate | CTGF expression [13, 23]: downregulate | Apoptosis (annexin V staining) ([14]; HCC95): increased apoptosis | Proliferation ([14]; HCC95 cells): reduced proliferation | Cell cycle arrest ([14]; HCC95 lung SCC): increased | Apoptosis (annexin V staining) ([15]; H1975): increased apoptosis | Proliferation ([15]; H1975 cells): reduced proliferation | Cell cycle arrest ([15]; H1975 lung adenocarcinoma): increased | CYR61 expression [16, 21]: upregulate | CYR61 expression [16, 22]: downregulate | CYR61 expression [16, 23]: downregulate | Glycolysis (Extracellular Acidification Rate) [17]: diminished | Glycolysis (Extracellular Acidification Rate) [18]: diminished | FBXO16 expression ([19]; resistant cuSCC lines, FIG. 8): downregulate | FBXO16 expression [19, 22]: upregulate | FBXO16 expression ([19]; sensitive cuSCC lines, FIG. 8): upregulate | ΔNp63 expression ([20]; FIG. 4, cell line not stated): suppresses ΔNp63 expression | Dependence of ΔNp63 suppression on Fbxw7 expression ([20]; FIG. 13): needs to be present | ΔNp63 protein expression ([20]; FaDu, FIG. 12): decreased protein expression | ΔNp63 protein levels ([20]; H1975 LUAD cells, FIG. 15): reduce ΔNp63 | ΔNp63 protein levels ([20]; LUSC HCC95 cells, FIG. 14): reduces ΔNp63 protein levels | ΔNp63 protein expression ([20]; SQ20B, FIG. 11): decreased protein expression
